For this experiment, the target named is human αvβ3 receptor (Homo sapiens, UniProt P05106+P06756). Kind of experiment: Bond displacement Vitronectin/Vitronectin Receptor (αvβ3), binding competition test Vn/VR. To be noted: human vitronectin coated plates, 3 hours at ambient temperature. The method, then:
1—Study by the Products of the Invention of the Bond Displacement: Vitronectin/Vitronectin Receptor (αvβ3) 96-well MaxiSorp plates are coated overnight at 4° C., with 100 μl of human Vitronectin (cf Yatohgo et al. Cell., Structure and fraction 13: 281-292 (1988)) at 2 μg/ml, (Dilution in coating buffer).
The next day, the wells are emptied and the ligands (Vitronectin) are then fixed (see fixation buffer) for 1 hour at ambient temperature under gentle agitation.
The wells are washed six times (see washing buffer), then the following are added per well and in this order:
40 μl of incubation buffer, 10 μl of the dilution of the product to be tested, (the products are diluted in a 50/50 mixture of DMSO—H2O) 50 μl of human αvβ3 receptor (cf Pytela et al. Methods Enzymol (1987)144:475) (dilution in incubation buffer, adapted according to the batch of receptor and according to the ligand).
The ligand, the human αvβ3 receptor and the products to be studied are incubated for 3 hours at ambient temperature under gentle agitation.
The wells are again washed six times, then incubated for 2 hours at ambient temperature under gentle agitation, in the presence of 100 μl of 4B12-HRP antibody, anti-receptor coupled to a peroxidase (the 4B12-HRP antibody is diluted in incubation buffer. The dilution is adapted according to the batch of receptor).
The wells are then washed six times before measurement of ligand-receptor bond is carried out using a peroxidase developer kit (TMB Microwell Peroxidase Substrate System Kirkegaard: Ref. cat. 50-76-00).
This kit contains a flask A of substrate (3,3′,5,5′-tetramethylbenzidine at 0.4 g/l) and a flask B (H2O2 at 0.02% in Citrate/Citric acid buffer). Extemporaneously, one volume of A is mixture with one volume of B, then the reaction mixture is distributed at the rate of 100 μl/well. The enzymatic reaction develops in 12′ for Vitronectin/αvβ3, then its development is stopped by the addition of 100 μl of 1M phosphoric acid.
The optical density is measured at 450 nm. […]
coating buffer: 0.05 M Carbonate, NaOH pH 9.6 fixation buffer: PBS containing 0.5% of BSA (pH 7.4) washing buffer: PBS containing 0.05% of Tween 20 (pH 7.4)
Expression of the results:
The following curve is plotted: the percentage of bond of human vitronectin as a function of the logarithm of the concentration of each product tested.
For each product the IC50 is determined according to the following formula:
BO=Maximum bond in the absence of any product Bmin=Minimum bond in the presence of the highest concentration of product.

Consider `COc1c(C(=O)NCC(NC(=O)OCc2ccccc2)C(=O)O)cc2c(c1OC)C1=C(CCC1)C(=NNC1=NCCCN1)CC2` (racemic) [EX. 2, 3-[[[9,10-dimethoxy-1,2,3,4,5,6-hexahydro-4-[(1,4,5,6-tetrahydropyrimidin-2-yl)]-hydrazono]-8-benz[e]azulenyl]carbonyl]amino]-N-[(phenylmethoxy)carbonyl]-DL-alanine], for which the IC50 was determined as 19 nM.

As for `COc1c(C(=O)NCC(NC(=O)OCc2ccccc2)C(=O)O)cc2c(c1OC)C1=C(CCC1)C(=NNC1=NCCN1)CC2` (racemic) [EX. 1, 3-[[[4-[(4,5-dihydro-1H-imidazol-2-yl)hydrazono]-9,10-dimethoxy-1,2,3,4,5,6-hexahydro-8-benz[e]azulenyl]-carbonyl]amino]—N-[(phenylmethoxy)carbonyl]-DL-alanine], the IC50 worked out at 16 nM.

For the compound `O=C(O)CC(NC(=O)c1ccc2c(c1)CCC(=NNC1=NCCN1)C1=C2CCC1)c1ccc2c(c1)OCO2` (stereo not shown) [EX. 4], the IC50 was 62 nM.

In turn, `O=C(O)CC(NC(=O)c1ccc2c(c1)CCC(=NNC1=NCCN1)C1=C2CCC1)c1cccnc1` (stereo not drawn) [EX. 3, beta-[[[4-[(4,5-dihydro-1H-imidazol-2-yl) hydrazono]-1,2,3,4,5,6-hexahydro-8-benz[e]azulenyl]-carbonyl]-amino]-3-pyridine-3-yl-propanoic acid] gave an IC50 of 100 nM.
